# Entries after “also recorded” stand apart in the source; their conditions may differ.
# Experiments:
# Type in all cases: in vivo, human
# [1] = Phase 1 open-label multidose pharmacokinetic study of IPE, EPA in plasma and RBCs by LC-MS/MS
# Description: A study to characterize the pharmacokinetics of ethyl eicosapentaenoate in plasma and red blood cells after multiple-dose administration of IPE at 2 g per day and 4 g per day was performed in healthy adult male and female humans.
# The study was a phase 1, open-label, randomized, multidose study in healthy, nonsmoking men and women aged >18 and ≦55 years with a body mass index (BMI)>18 and ≦30 kg/m^2. Exclusion criteria included use within 6 weeks prior to randomization through study end of any lipid-altering medications or supplements, including statins, niacin at levels of greater than 200 mg/day, fibrates, ezetimibe, bile acid sequestrants, omega-3 fatty acid medications, and supplements or foods enriched with omega-3 fatty acids (no more than 2 servings of fish per week were permitted).
# Following a 14-day screening period, subjects entered a 28-day treatment period and were randomized to one of four IPE dose regimen treatment groups as shown in FIG. 1. Group 1 received IPE 2 g daily (1000-mg capsules; twice-daily [BID] regimen); Group 2 received IPE 4 g daily (1000-mg capsules; BID regimen); Group 3 received IPE 2 g daily (1000-mg capsules; once-daily [QD] regimen); and Group 4 received IPE 2 g daily (500-mg capsules; BID regimen). Treatment was administered orally, with or following a meal in the morning and evening for BID regimens, or in the morning only for the QD regimen. Subjects then entered an 18-day post-treatment pharmacokinetic sampling period.
# The safety population was defined as all randomized subjects who received at least one dose of study drug. […]
# Fasting EPA concentrations were measured with a validated liquid chromatography with tandem mass spectrometry (LC-MS/MS) method in plasma and RBCs prior to the morning dose (days 1, 14, 26, 28) and at serial time points (1, 3, 5, 6, 8, 10, 12, 24, 48, 72, 120, 192, 312, and 432 hours) after the morning dose on day 28. […] In RBCs, EPA was measured in the cell membrane, where EPA is mainly incorporated in phospholipids.
# For total EPA in plasma and RBCs, lipids were isolated by acid/methanol/chloroform extraction followed by centrifugation and purified by isohexane and solid-phase extraction after confirmed complete lipid hydrolysis and transmethylation (acid/methanol, 50° C. overnight). […] Quantitation utilized linolenic acid as an internal standard and EPA as the standard for the calibration curve; for total plasma EPA, RBC EPA, and unesterified EPA, the lower limits of quantitation were 10 μg/mL, 5 μg/mL, and 50 ng/mL, respectively. EPA concentrations were measured at Charles River Laboratories Ltd (Elphinstone Research Center, Tranent, Edinburgh, Scotland, UK). […]
# [2] = Safety and tolerability in the phase 1 IPE pharmacokinetic study
# From the text: The safety population was defined as all randomized subjects who received at least one dose of study drug. The per-protocol population was defined as all safety population subjects who completed the 28-day treatment period without any major protocol deviations, and who provided blood samples for EPA analyses.
# Safety assessments consisted of adverse event (AE) monitoring, clinical laboratory measurements (chemistry, hematology, and urinalysis) 12-lead electrocardiographic measurements, vital signs (systolic and diastolic blood pressure, heart rate, respiratory rate, and oral body temperature) and physical examination findings.
# [3] = test system: inflammation-associated end points (ICAM-1, Ox-LDL, Lp-PLA2, IL-6, hsCRP); experiment: MARINE study, inflammation-associated end points (ITT); conditions: for ICAM-1 change from baseline / ICAM-1 end-of-treatment value / IL-6 change from baseline / IL-6 end-of-treatment value / Lp-PLA2 change from baseline / Lp-PLA2 end-of-treatment value / Ox-LDL change from baseline / Ox-LDL end-of-treatment value / hsCRP change from baseline / hsCRP end-of-treatment value: median
# From the text: A summary of baseline values, end-of-treatment values, and median placebo-adjusted percent change from baseline to study end of inflammation-associated end points in each of the three ITT sub-populations is shown in Table 5. […]
# [4] = test system: inflammation-associated end points (ICAM-1, Ox-LDL, Lp-PLA2, IL-6, hsCRP); experiment: ANCHOR study, inflammation-associated end points (ITT); conditions: for ICAM-1 median placebo-adjusted % change from baseline / IL-6 median placebo-adjusted % change from baseline / Lp-PLA2 median placebo-adjusted % change from baseline / Ox-LDL median placebo-adjusted % change from baseline / hsCRP median placebo-adjusted % change from baseline: week 12; for ICAM-1 change from baseline / ICAM-1 end-of-treatment value / IL-6 change from baseline / IL-6 end-of-treatment value / Lp-PLA2 change from baseline / Lp-PLA2 end-of-treatment value / Ox-LDL change from baseline / Ox-LDL end-of-treatment value / hsCRP change from baseline / hsCRP end-of-treatment value: week 12, on statin, median
# Description: A multi-center, placebo-controlled, randomized, double-blind, 12-week study was performed to evaluate the efficacy and safety of >96% E-EPA in patients with fasting triglyceride levels ≧200 mg/dl and <500 mg/dl despite statin therapy (the mean of two qualifying entry values needed to be ≧185 mg/dl and at least one of the values needs to be ≧200 mg/dl). The primary objective of the study was to determine the efficacy of >96% E-EPA 2 g daily and 4 g daily, compared to placebo, in lowering fasting TG levels in patients with high risk for cardiovascular disease and with fasting TG levels ≧200 mg/dL and <500 mg/dL, despite treatment to LDL-C goal on statin therapy.
# The population for this study was men and women >18 years of age with a body mass index ≦45 kg/m^2 with fasting TG levels greater than or equal to 200 mg/dl and less than 500 mg/dl and on a stable does of statin therapy (with or without ezetimibe). The statin must have been atorvostatin, rosuvastatin or simvastatin. The dose of statin must have been stable for ≧4 weeks prior to the LDL-C/TG baseline qualifying measurement for randomization. The statin dose was optimal such that the patients are at their LDL-C goal at the LDL-C/TG baseline qualifying measurements. The same statin at the same dose was continued until the study ended.
# Approximately 648 patients were randomized at approximately 80 centers in the U.S. The study was a 18- to 20-week, Phase 3, multi-center study consisting of 2 study periods: (1) A 6- to 8-week screening period that included a diet and lifestyle stabilization, a non-statin lipid-altering treatment washout, and an LDL-C and TG qualifying period and (2) A 12-week, double-blind, randomized, placebo-controlled treatment period.
# After confirmation of qualifying fasting LDL-C and TG values, eligible patients entered a 12-week, randomized, double-blind treatment period. At Visit 4 (Week 0), patients were randomly assigned to 1 of the following treatment groups: • >96% E-EPA 2 g daily, • >96% E-EPA 4 g daily, or • Placebo.
# >96% E-EPA was provided in 1 g liquid-filled, oblong, gelatin capsules. The matching placebo capsule was filled with light liquid paraffin and contains 0 g of >96% E-EPA. >96% E-EPA capsules were to be taken with food (i.e. with or at the end of a meal).
# The primary efficacy variable for the double-blind treatment period was percent change in TG from baseline to Week 12 endpoint. The secondary efficacy variables for the double-blind treatment period included the following: • Percent changes in total cholesterol (TC), high-density lipoprotein cholesterol (HDL-C), LDL-C, calculated non-HDL-C, and very low-density lipoprotein cholesterol (VLDL-C) from baseline to Week 12 endpoint; • Percent change in very low-density lipoprotein TG from baseline to Week 12; • Percent changes in apolipoprotein A-I (apo A-I), apolipoprotein B (apo B), and apo A-I/apo B ratio from baseline to Week 12; • Percent changes in lipoprotein(a) from baseline to Week 12; • Percent changes in LDL particle number and size, measured by nuclear magnetic resonance, from baseline to Week 12; • Percent change in remnant-like particle cholesterol from baseline to Week 12; • Percent change in oxidized LDL from baseline to Week 12; • Changes in FPG and HbA1c from baseline to Week 12; • Change in insulin resistance, as assessed by the homeostasis model index insulin resistance, from baseline to Week 12; • Percent change in lipoprotein associated phospholipase A2 (Lp-PLA2) from baseline to Week 12; • Change in intracellular adhesion molecule-1 from baseline to Week 12; • Change in interleukin-2 from baseline to Week 12; • Change in plasminogen activator inhibitor-1 from baseline to Week 12. […]
structure (smiles),measurement,setting,value
"CC/C=C\C/C=C\C/C=C\C/C=C\C/C=C\CCCC(=O)OCC [IPE, ethyl eicosapentaenoate]",dose linearity of exposure (dose-normalized AUC and maximum concentration),"[1]; IPE 2 g/day vs 4 g/day (Group 1 vs Group 2), total plasma, total RBCs, unesterified EPA",Dose linearity was observed; also recorded: dose-proportional
same,effect of gender on exposure parameters,[1]; in vivo,no consistent gender effect was observed
same,comparison of exposure between QD and BID regimens,"[1]; same daily dose 2 g, Group 1 vs Group 3",similarity between QD and BID regimens
same,comparison of exposure between 500-mg and 1000-mg formulations,"[1]; same daily dose 2 g, Group 1 vs Group 4",comparable exposures at comparable doses
same,subjects reporting at least one adverse event,"[2]; Group 1, IPE 2 g daily, 1000-mg capsules BID",25.0%
same,subjects reporting at least one adverse event,"[2]; Group 2, IPE 4 g daily, 1000-mg capsules BID",33.3%
same,subjects reporting at least one adverse event,"[2]; Group 3, IPE 2 g daily, 1000-mg capsules QD",25.0%
same,subjects reporting at least one adverse event,"[2]; Group 4, IPE 2 g daily, 500-mg capsules BID",33.3%
same,"changes in laboratory, electrocardiographic, or physical examination findings",[2]; all groups,no clinically meaningful changes
same,intensity of adverse events,[2]; all groups,mild or moderate in intensity
same,subjects reporting at least one adverse event,"[2]; all groups, safety population n = 48",29.2%
same,ICAM-1 median placebo-adjusted % change from baseline,[3]; AMR101 2 g/day vs placebo,−2.3%
same,IL-6 median placebo-adjusted % change from baseline,[3]; AMR101 2 g/day vs placebo,4.7%
same,Lp-PLA2 median placebo-adjusted % change from baseline,[3]; AMR101 2 g/day vs placebo,−5.1%
same,Ox-LDL median placebo-adjusted % change from baseline,[3]; AMR101 2 g/day vs placebo,−3.0%
same,hsCRP median placebo-adjusted % change from baseline,[3]; AMR101 2 g/day vs placebo,−10.1%
same,ICAM-1 change from baseline,[3]; AMR101 2 g/day,−0.4%
same,ICAM-1 end-of-treatment value,[3]; AMR101 2 g/day,257.5 ng/mL
same,IL-6 change from baseline,[3]; AMR101 2 g/day,3.4%
same,IL-6 end-of-treatment value,[3]; AMR101 2 g/day,3.0 pg/mL
same,Lp-PLA2 change from baseline,[3]; AMR101 2 g/day,−5.1%
same,Lp-PLA2 end-of-treatment value,[3]; AMR101 2 g/day,220.5 ng/mL
same,Ox-LDL change from baseline,[3]; AMR101 2 g/day,0.4%
same,Ox-LDL end-of-treatment value,[3]; AMR101 2 g/day,75.2 U/L
same,hsCRP change from baseline,[3]; AMR101 2 g/day,25.1%
same,hsCRP end-of-treatment value,[3]; AMR101 2 g/day,2.4 mg/L
same,ICAM-1 median placebo-adjusted % change from baseline,[3]; AMR101 4 g/day vs placebo,−2.5%
same,IL-6 median placebo-adjusted % change from baseline,[3]; AMR101 4 g/day vs placebo,11.0%
same,Lp-PLA2 median placebo-adjusted % change from baseline,[3]; AMR101 4 g/day vs placebo,−13.6%
same,Ox-LDL median placebo-adjusted % change from baseline,[3]; AMR101 4 g/day vs placebo,−6.4%
same,hsCRP median placebo-adjusted % change from baseline,[3]; AMR101 4 g/day vs placebo,−36.0%
same,ICAM-1 change from baseline,[3]; AMR101 4 g/day,−0.9%
same,ICAM-1 end-of-treatment value,[3]; AMR101 4 g/day,253.0 ng/mL
same,IL-6 change from baseline,[3]; AMR101 4 g/day,0.3%
same,IL-6 end-of-treatment value,[3]; AMR101 4 g/day,2.4 pg/mL
same,Lp-PLA2 change from baseline,[3]; AMR101 4 g/day,−17.1%
same,Lp-PLA2 end-of-treatment value,[3]; AMR101 4 g/day,201.0 ng/mL
same,Ox-LDL change from baseline,[3]; AMR101 4 g/day,−3.0%
same,Ox-LDL end-of-treatment value,[3]; AMR101 4 g/day,74.8 U/L
same,hsCRP change from baseline,[3]; AMR101 4 g/day,−2.5%
same,hsCRP end-of-treatment value,[3]; AMR101 4 g/day,2.2 mg/L
same,ICAM-1 median placebo-adjusted % change from baseline,[4]; AMR101 2 g/day vs placebo,−2.2%
same,IL-6 median placebo-adjusted % change from baseline,[4]; AMR101 2 g/day vs placebo,7.0%
same,Lp-PLA2 median placebo-adjusted % change from baseline,[4]; AMR101 2 g/day vs placebo,−8.0%
same,Ox-LDL median placebo-adjusted % change from baseline,[4]; AMR101 2 g/day vs placebo,−5.8%
same,hsCRP median placebo-adjusted % change from baseline,[4]; AMR101 2 g/day vs placebo,−6.8%
same,ICAM-1 change from baseline,[4]; AMR101 2 g/day,0.5%
same,ICAM-1 end-of-treatment value,[4]; AMR101 2 g/day,268.5 ng/mL
same,IL-6 change from baseline,[4]; AMR101 2 g/day,6.9%
same,IL-6 end-of-treatment value,[4]; AMR101 2 g/day,2.7 pg/mL
same,Lp-PLA2 change from baseline,[4]; AMR101 2 g/day,−1.8%
same,Lp-PLA2 end-of-treatment value,[4]; AMR101 2 g/day,183.5 ng/mL
same,Ox-LDL change from baseline,[4]; AMR101 2 g/day,2.6%
same,Ox-LDL end-of-treatment value,[4]; AMR101 2 g/day,55.8 U/L
same,hsCRP change from baseline,[4]; AMR101 2 g/day,10.3%
same,hsCRP end-of-treatment value,[4]; AMR101 2 g/day,2.5 mg/L
same,ICAM-1 median placebo-adjusted % change from baseline,[4]; AMR101 4 g/day vs placebo,−2.4%
same,IL-6 median placebo-adjusted % change from baseline,[4]; AMR101 4 g/day vs placebo,−1.0%
same,Lp-PLA2 median placebo-adjusted % change from baseline,[4]; AMR101 4 g/day vs placebo,−19.0%
same,Ox-LDL median placebo-adjusted % change from baseline,[4]; AMR101 4 g/day vs placebo,−13.3%
same,hsCRP median placebo-adjusted % change from baseline,[4]; AMR101 4 g/day vs placebo,−22.0%
same,ICAM-1 change from baseline,[4]; AMR101 4 g/day,0.8%
same,ICAM-1 end-of-treatment value,[4]; AMR101 4 g/day,270.0 ng/mL
same,IL-6 change from baseline,[4]; AMR101 4 g/day,3.1%
same,IL-6 end-of-treatment value,[4]; AMR101 4 g/day,2.6 pg/mL
same,Lp-PLA2 change from baseline,[4]; AMR101 4 g/day,−12.8%
same,Lp-PLA2 end-of-treatment value,[4]; AMR101 4 g/day,160.0 ng/mL
same,Ox-LDL change from baseline,[4]; AMR101 4 g/day,−4.8%
same,Ox-LDL end-of-treatment value,[4]; AMR101 4 g/day,51.4 U/L
same,hsCRP change from baseline,[4]; AMR101 4 g/day,−2.4%
same,hsCRP end-of-treatment value,[4]; AMR101 4 g/day,2.0 mg/L
